Experimental data reported in patent US6461841B2, “L-amino acid oxidase from Rhodococcus species” (Degussa AG, priority 2000, dated 2002).
Read-outs that look alike come from different tables or passages of the source.

Key:
[1] = molecular target: T1, L-amino acid oxidase from Rhodococcus opacus (Rhodococcus opacus, UniProt Q8VPD4); experiment: Transformation of D,L-amino acid with L-amino acid oxidase, HPLC analysis of L- and D-form; format: biochemical; conditions: for concentration of the D-form during the reaction: 7 mM D,L-amino acid
T1 construct: made in house; host or cells: Rhodococcus opacus DSM 43250, the natural producer; purified from crude cell extract, not recombinant
T1 sequence (Q8VPD4 46-534): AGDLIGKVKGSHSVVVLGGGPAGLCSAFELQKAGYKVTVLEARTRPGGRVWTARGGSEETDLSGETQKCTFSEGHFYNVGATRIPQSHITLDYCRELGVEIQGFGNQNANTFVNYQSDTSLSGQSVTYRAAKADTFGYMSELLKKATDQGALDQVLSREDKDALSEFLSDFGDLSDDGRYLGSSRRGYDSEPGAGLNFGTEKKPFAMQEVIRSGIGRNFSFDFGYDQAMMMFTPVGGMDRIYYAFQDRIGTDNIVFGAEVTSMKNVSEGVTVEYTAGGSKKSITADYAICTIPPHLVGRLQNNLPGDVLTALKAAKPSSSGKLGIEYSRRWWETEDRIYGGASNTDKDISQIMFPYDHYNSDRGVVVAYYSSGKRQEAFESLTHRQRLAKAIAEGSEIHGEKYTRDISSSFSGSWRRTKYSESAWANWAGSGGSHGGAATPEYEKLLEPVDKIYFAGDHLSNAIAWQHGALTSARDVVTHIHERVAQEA
Procedure: […] The total volume of the batch was 1 mL. Samples (50 μL) were taken at regular intervals, and analyzed for the content of L- and D-phenylalanine, using HPLC. Directly after being taken, the samples were heated to 95° C. for 3 min, and then the precipitated protein was centrifuged off. 20 μL of the diluted top fraction were put into 180 μL 100 mM sodium borate buffer, pH 10.4, and mixed with 20 μL of a derivativization reagent (260 mM isobuturyl-L-cysteine (IBLC) and 170 mM ophthaldialdehyde (OPA) in 100 mM sodium borate buffer, pH 10.4).
Separation conditions of HPLC:
Column: RP-18, 250×4 mm, 5 Am, Kromasil (Phenomenex, Aschaffenburg, Germany)
Detection: fluorescence, Ex. 340 nm, Em. 440 nm
Flow agent A: 23 mM sodium acetate buffer; pH 6.5 adjusted with acetic acid
Flow agent B: acetonitrile:water (10:1.5)

[2] = molecular target: T1, L-amino acid oxidase from Rhodococcus opacus; experiment: Substrate spectrum and stereospecificity of L-amino acid oxidase; format: biochemical; conditions: relative to 10 mM L-alanine
Procedure: The transformation of a large number of natural and non-natural amino acids was investigated. The following test batch (1 mL) was used for this purpose: 10 mM enantiomer-pure amino acid (or 20 mM D,L-amino acid); 0.2 M TEA-HCl buffer, pH 7.6; 0.2 mg/mL odianisidine; 10 U/mL POX; L-amino acid oxidase solution in limiting amounts. The activity measurements were carried out by photometry at 436 nm and 30° C.
The stereospecificity of the L-amino acid oxidase was measured for several substrates (e.g. alanine, asparagine, glutamine, phenylalanine, methionine, leucine, ornithine, lysine, histidine), in that both the D-form and the L-form, as well as the racemate were used. In this connection, D-amino acids are not transformed in any case. The activities with the racemates were as high, for all the substrates, as for the pure L-amino acids in each instance. […] In the determination of the substrate spectrum, it is therefore also possible to use the D,L-form.
The measured activity values were indicated as relative values with reference to the activity with 10 mM L-alanine (Table 4). Weak activity was indicated with a + in the table.

[3] = molecular target: T1, L-amino acid oxidase from Rhodococcus opacus; experiment: biochemical
Procedure: To determine the kinetic constants, the reaction speed of oxidation was studied at different concentrations of amino acid and for different L-amino acids, under the following conditions (tests in microtiter plates):
0.2 M TEA-HCl buffer, pH 7.6; 0.2 mg/mL o-dianisidine; 25 U/mL POX; L-amino acid oxidase in limiting amounts; varying concentrations of the different L-amino acids. Activity measurement was conducted by photometry at 450 nm and 30° C.
The kinetic constants Vmax.

[4] = 10 mM enantiomer-pure amino acid, pH 7.6, 30° C., 436 nm
[5] = marked #: used in racemic form (20 mM D,L-amino acid)
[6] = marked *: poor solubility, 100 μL top fraction of saturated L-amino acid solution per batch
[7] = 0.2 M TEA-HCl buffer, pH 7.6, 30° C., constant of the amino acid as substrate, read-out: Ki

Row | Structure (SMILES) | Rel. activity (%) [2, 4] | also measured
1 | N[C@H](Cc1ccccc1)C(=O)O [D-phenylalanine] | – | concentration of the D-form during the reaction ([1]; 35 μg/mL enzyme, pH 7.6): remains constant; ee value ([1]; after a reaction time of 30 min): ≥ 99.2%; ee value ([1]; after a reaction time of 180 min): ≥ 99.5%
2 | N=C(N)NCCC[C@H](N)C(=O)O [Arginine] | 70% | Ki [3]: 5.42 mM
3 | CC(C)C[C@@H](N)C(=O)O [D-leucine] | – | concentration of the D-form during the reaction ([1]; 35 μg/mL enzyme, pH 7.6): remains constant; ee value ([1]; after a reaction time of 20 min): ≥ 99.2%
4 | COC[C@H](N)C(=O)O (racemic) [O-methyl serine] | – | Rel. activity (%) [2, 5]: 99%
5 | CSCC[C@H](N)C(=O)O [Methionine] | 72% | Ki [3]: 6.84 mM; Vmax (U/mg) ([3]; 0.2 M TEA-HCl buffer, pH 7.6, 30° C.): 6.43 U/mg
6 | CCCC[C@H](N)C(=O)O (racemic) [Norleucine] | – | Rel. activity (%) [2, 5]: 73%
7 | C[C@H](N)C(=O)O [Alanine, L-alanine] | 100% | –
8 | N[C@@H](Cc1ccc([N+](=O)[O-])cc1)C(=O)O [4-nitrophenylalanine] | – | Rel. activity (%) [2, 6]: 30%
9 | N[C@@H](Cc1cccc2ccccc12)C(=O)O [3-(1-naphthyl)alanine] | – | Rel. activity (%) [2, 6]: 109%
10 | N[C@@H](CCc1ccccc1)C(=O)O (racemic) [Homophenylalanine] | – | Rel. activity (%) ([2]; marked *#: racemic form, low concentration (top fraction of saturated solution)): 50%
11 | N[C@@H](Cc1ccccc1)C(=O)O [Phenylalanine, L-phenylalanine] | 53% | concentration in the course of the reaction ([1]; 7 mM D,L-phenylalanine, 35 μg/mL enzyme, pH 7.6, originally 3.5 mM): < 0.01 mM; Ki [3, 7]: 5.29 mM
12 | NCCC[C@H](N)C(=O)O [Ornithine] | 117% | Ki [3]: 12.5 mM
13 | NC1CCSC1=O (stereo not drawn) [Homocysteine thiolactone] | 23% | –
14 | NC1CCOC1=O (stereo not drawn) [2-amino-4-butyrolactone] | 66% | –
15 | NC(=O)NCCC[C@H](N)C(=O)O [Citrulline] | 74% | Ki [3, 7]: 20.6 mM
16 | CC[C@H](C)[C@H](N)C(=O)O [Isoleucine] | 45% | –
17 | NCCCC[C@H](N)C(=O)O [Lysine, L-lysine] | 55% | Ki [3]: 63.7 mM
18 | NC(=O)CC[C@H](N)C(=O)O [Glutamine] | 52% | –

Row | Structure (SMILES) | Rel. activity (%) [2, 4] | also measured
19 | N[C@@H](Cc1c[nH]c2ccccc12)C(=O)O [Tryptophan] | 12% | –
20 | CC(C)[C@H](N)C(=O)O [Valine, L-valine] | 32% | –
21 | CC(=O)NCCCC[C@H](N)C(=O)O [Nε-acetyllysine] | 46% | –
22 | N[C@@H](Cc1ccc(Cl)cc1)C(=O)O (racemic) [4-chlorophenylalanine] | 9% | –
23 | CC(C)C[C@H](N)C(=O)O [Leucine, L-leucine] | 68% | transformation of the L-form ([1]; 7 mM D,L-leucine, during the first 20 min): almost completely transformed; Ki [3, 7]: 5.69 mM
24 | CC(C)(C)CCC(N)C(=O)O (stereo not drawn) [2-amino-5,5-dimethyl hexanic acid] | 44% | –
25 | N[C@@H](Cc1ccc(F)cc1)C(=O)O (racemic) [4-fluorophenylalanine] | – | Rel. activity (%) [2, 5]: 25%
26 | N[C@H](C(=O)O)C(O)c1ccccc1 (mixture of isomers) [β-Phenyl serine] | – | Rel. activity (%) [2, 5]: 8%
27 | N[C@@H](Cc1c[nH]cn1)C(=O)O [Histidine] | 36% | –
28 | NCC(N)C(=O)O (stereo not drawn) [2.3-diaminopropionic acid] | 71% | –
29 | N[C@@H](CSSC[C@H](N)C(=O)O)C(=O)O [Cystine] | – | Rel. activity (%) [2, 6]: 104%
30 | NC(=O)C[C@H](N)C(=O)O [Asparagine] | 97% | –
31 | N[C@@H](Cc1ccccc1Cl)C(=O)O [2-chlorophenylalanine] | 24% | –
32 | NCCC(N)C(=O)O (stereo not drawn) [2.4-diaminobutyric acid] | 100% | –
33 | Nc1ccc(C[C@H](N)C(=O)O)cc1 [4-aminophenylalanine] | 16% | –
34 | N[C@@H](Cc1ccc(O)cc1)C(=O)O [Tyrosine] | – | Rel. activity (%) [2, 6]: 54%
35 | N[C@@H](CO)C(=O)O [Serine] | 72% | –
